The series in a line: Further solubility experiments (remaining in solution after dilution). The class given is physicochemical. As to the method:
After determining that heterocycles and hydroxy or amine substituted aromatics dissolve tryptanthrin compounds, the following was conducted to determine if once dissolved the compounds would remain in solution in aqueous environments. To this end 10 mg of DN49 was dissolved in 1.0 ml of piperidine to obtain a green solution. This solution was then added dropwise to 2.0 ml of deionized water without precipitation of the compound. The solution was placed in a chemical fume hood so that the piperidine could evaporate slowly. After a week, the piperidine had evaporated and the resulting solution had no solid in the aqueous environment and had turned from the green color of the piperidne complex back to the yellow color of uncomplexed DN49 solutions.
A […] green stock solution of DN49 in 1-(3-aminopropyl)imidazole was formed. To 1.95 ml of a given solvent listed below, 50 microliter of the stock solution was added and the resulting solution was vortexed for a second to ensure rapid mixing; this provided a 5 mM solution. The results by solvent follow: • 1. Chloroform: Solution goes from green to yellow in less than 30 minutes; no solid after more than three months at ambient conditions. • 2. Methanol: Solution goes from green to yellow between 5 and 12 hours after mixing; no solid. • 3. 1,4-dioxane: Solution goes from green to yellow in approximately 1 hour; no solid. • 4. Deionized water: Solution goes from […] over the course of several days; no solid. • 5. Acetonitrile: Solution goes from green to yellow in about 3 hours; no solid. • 6.

As to `O=C1c2ccccc2-n2c1nc1ncccc1c2=O` [DN49], the “solid in aqueous solution after evaporation of piperidine” value (10 mg in 1.0 ml piperidine added to 2.0 ml deionized water, after a week) is recorded as “no solid”. Also, the “solid formation from 5 mM solution” value is listed as “no solid” (50 microliter 200 mM stock in 1-(3-aminopropyl)imidazole into 1.95 ml Chloroform, more than three months at ambient conditions); “green solid fall out of solution after about 12 hours” (stock in 1-(3-aminopropyl)imidazole into 0.1 M aqueous citric acid); “no solid” (stock in 1-(3-aminopropyl)imidazole into 1,4-dioxane); “green precipitate after 8 hours” (stock in 1-(3-aminopropyl)imidazole into 10% aqueous sodium bicarbonate); “no solid” (stock in 1-(3-aminopropyl)imidazole into Acetonitrile); “no solid” (stock in 1-(3-aminopropyl)imidazole into Deionized water). Moreover, the “solid formation from 5 mM solution” value (stock in 1-(3-aminopropyl)imidazole into Methanol) is “no solid”.
